Assay results as given in the supplement of paper PMC10307832.

Experiments:
Experiment in all cases: relative viability (nuclei count vs DMSO), 5 days (fraction); higher = more cells survive
[1] = compound: O=C(C[C@H]1NCCC[C@@H]1O)Cn1cnc2cc(Br)c(Cl)cc2c1=O (racemic) [Halofuginone] + CC1(C)CCC(c2ccc(Cl)cc2)=C(CN2CCN(c3ccc(C(=O)NS(=O)(=O)c4ccc(N[C@H](CCN5CCOCC5)CSc5ccccc5)c(S(=O)(=O)C(F)(F)F)c4)cc3)CC2)C1 [Navitoclax] (partner 0.5 µM)
Method in brief: (§1)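 For relative viability, nuclei counts in treated wells were divided by those in vehicle wells. Lung cancer cell lines had been pin-tool dosed in 1536-well plates the day after seeding and cultured for 5 days, then fixed and stained in one step (final 0.05% Triton X-100, 1% formaldehyde, 1 ug/ml Hoechst) and imaged at 4×. Doses were one drug alone or a fixed anchor-drug dose plus five library-drug doses (not always all listed) in √10 steps, and values are duplicate-plate medians.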

[2] = compound: O=C(C[C@H]1NCCC[C@@H]1O)Cn1cnc2cc(Br)c(Cl)cc2c1=O (racemic) [Halofuginone] + C[C@]1(O)C[C@@H](c2nc(-c3ccc4ccc(-c5ccccc5)nc4c3)c3c(N)nccn32)C1 [Linsitinib] (partner 1 µM)
Method in brief: as §1

Decitabine + Lapatinib = compound: Nc1ncn([C@H]2C[C@H](O)[C@@H](CO)O2)c(=O)n1 [Decitabine] + CS(=O)(=O)CCNCc1ccc(-c2ccc3ncnc(Nc4ccc(OCc5cccc(F)c5)c(Cl)c4)c3c2)o1 [Lapatinib] (partner 2 µM)
Method in brief: as §1

Cediranib + Crizotinib = compound: COc1cc2c(Oc3ccc4[nH]c(C)cc4c3F)ncnc2cc1OCCCN1CCCC1 [Cediranib] + C[C@@H](Oc1cc(-c2cnn(C3CCNCC3)c2)cnc1N)c1c(Cl)ccc(F)c1Cl [Crizotinib] (partner 1 µM)
Method in brief: as §1

## COR-L 105
[1]; first compound 0.001 µM
  relative viability: 0.939
[1]; first compound 0.003162 µM
  relative viability: 0.396
[1]; first compound 0.01 µM
  relative viability: 0.733
[1]; first compound 0.03162 µM
  relative viability: 0.595
[1]; first compound 0.1 µM
  relative viability: 0.46
[2]; first compound 0.001 µM
  relative viability: 1.13
[2]; first compound 0.003162 µM
  relative viability: 0.932
[2]; first compound 0.01 µM
  relative viability: 0.764
[2]; first compound 0.03162 µM
  relative viability: 0.748
[2]; first compound 0.1 µM
  relative viability: 0.753
Decitabine + Lapatinib; first compound 0.04 µM
  relative viability: 0.345
Decitabine + Lapatinib; first compound 0.1265 µM
  relative viability: 0.317
Decitabine + Lapatinib; first compound 0.4 µM
  relative viability: 0.328
Decitabine + Lapatinib; first compound 1.265 µM
  relative viability: 0.326
Decitabine + Lapatinib; first compound 4 µM
  relative viability: 0.28
Cediranib + Crizotinib; first compound 0.1265 µM
  relative viability: 0.842
Cediranib + Crizotinib; first compound 0.4 µM
  relative viability: 0.832
Cediranib + Crizotinib; first compound 1.265 µM
  relative viability: 0.716
Cediranib + Crizotinib; first compound 4 µM
  relative viability: 0.695

## Calu-6
[1]; first compound 0.001 µM
  relative viability: 0.896
[1]; first compound 0.003162 µM
  relative viability: 0.956
[1]; first compound 0.01 µM
  relative viability: 0.884
[1]; first compound 0.03162 µM
  relative viability: 0.258
[1]; first compound 0.1 µM
  relative viability: 0.092
[2]; first compound 0.001 µM
  relative viability: 1
[2]; first compound 0.01 µM
  relative viability: 0.932
[2]; first compound 0.03162 µM
  relative viability: 0.712
[2]; first compound 0.1 µM
  relative viability: 0.35
Decitabine + Lapatinib; first compound 0.04 µM
  relative viability: 0.87
Decitabine + Lapatinib; first compound 0.1265 µM
  relative viability: 0.689
Decitabine + Lapatinib; first compound 0.4 µM
  relative viability: 0.316
Decitabine + Lapatinib; first compound 1.265 µM
  relative viability: 0.308
Decitabine + Lapatinib; first compound 4 µM
  relative viability: 0.264
Cediranib + Crizotinib; first compound 0.04 µM
  relative viability: 0.844
Cediranib + Crizotinib; first compound 0.1265 µM
  relative viability: 0.849
Cediranib + Crizotinib; first compound 0.4 µM
  relative viability: 0.81
Cediranib + Crizotinib; first compound 1.265 µM
  relative viability: 0.786
Cediranib + Crizotinib; first compound 4 µM
  relative viability: 0.602

## EBC-1
[1]; first compound 0.001 µM
  relative viability: 0.535
[1]; first compound 0.003162 µM
  relative viability: 0.35
[1]; first compound 0.01 µM
  relative viability: 0.274
[1]; first compound 0.03162 µM
  relative viability: 0.244
[1]; first compound 0.1 µM
  relative viability: 0.109
[2]; first compound 0.001 µM
  relative viability: 0.959
[2]; first compound 0.003162 µM
  relative viability: 1.07
[2]; first compound 0.01 µM
  relative viability: 0.784
[2]; first compound 0.03162 µM
  relative viability: 0.656
[2]; first compound 0.1 µM
  relative viability: 0.251
Decitabine + Lapatinib; first compound 0.04 µM
  relative viability: 0.2
Decitabine + Lapatinib; first compound 0.1265 µM
  relative viability: 0.163
Decitabine + Lapatinib; first compound 0.4 µM
  relative viability: 0.162
Decitabine + Lapatinib; first compound 1.265 µM
  relative viability: 0.195
Decitabine + Lapatinib; first compound 4 µM
  relative viability: 0.152
Cediranib + Crizotinib; first compound 0.04 µM
  relative viability: 0.17
Cediranib + Crizotinib; first compound 0.1265 µM
  relative viability: 0.213
Cediranib + Crizotinib; first compound 0.4 µM
  relative viability: 0.21
Cediranib + Crizotinib; first compound 1.265 µM
  relative viability: 0.201
Cediranib + Crizotinib; first compound 4 µM
  relative viability: 0.172

## EKVX
[1]; first compound 0.001 µM
  relative viability: 1.06
[1]; first compound 0.003162 µM
  relative viability: 0.971
[1]; first compound 0.01 µM
  relative viability: 0.984
[1]; first compound 0.03162 µM
  relative viability: 0.905
[1]; first compound 0.1 µM
  relative viability: 0.797
[2]; first compound 0.001 µM
  relative viability: 1.02
[2]; first compound 0.003162 µM
  relative viability: 0.966
[2]; first compound 0.01 µM
  relative viability: 0.916
[2]; first compound 0.03162 µM
  relative viability: 1.06
[2]; first compound 0.1 µM
  relative viability: 0.762
Decitabine + Lapatinib; first compound 0.04 µM
  relative viability: 0.211
Decitabine + Lapatinib; first compound 0.1265 µM
  relative viability: 0.2
Decitabine + Lapatinib; first compound 0.4 µM
  relative viability: 0.213
Decitabine + Lapatinib; first compound 1.265 µM
  relative viability: 0.184
Decitabine + Lapatinib; first compound 4 µM
  relative viability: 0.163
Cediranib + Crizotinib; first compound 0.04 µM
  relative viability: 0.933
Cediranib + Crizotinib; first compound 0.1265 µM
  relative viability: 0.92
Cediranib + Crizotinib; first compound 0.4 µM
  relative viability: 0.936
Cediranib + Crizotinib; first compound 1.265 µM
  relative viability: 0.895
Cediranib + Crizotinib; first compound 4 µM
  relative viability: 0.975

## EMC-BAC-2
[1]; first compound 0.001 µM
  relative viability: 1.14
[1]; first compound 0.003162 µM
  relative viability: 1.29
[1]; first compound 0.01 µM
  relative viability: 1.14
[1]; first compound 0.03162 µM
  relative viability: 1.13
[1]; first compound 0.1 µM
  relative viability: 0.87
[2]; first compound 0.001 µM
  relative viability: 0.813
[2]; first compound 0.003162 µM
  relative viability: 0.872
[2]; first compound 0.01 µM
  relative viability: 0.798
[2]; first compound 0.03162 µM
  relative viability: 0.785
[2]; first compound 0.1 µM
  relative viability: 0.641
Decitabine + Lapatinib; first compound 0.04 µM
  relative viability: 0.926
Decitabine + Lapatinib; first compound 0.1265 µM
  relative viability: 0.989
Decitabine + Lapatinib; first compound 0.4 µM
  relative viability: 0.556
Decitabine + Lapatinib; first compound 1.265 µM
  relative viability: 0.67
Decitabine + Lapatinib; first compound 4 µM
  relative viability: 0.586
Cediranib + Crizotinib; first compound 0.04 µM
  relative viability: 0.782
Cediranib + Crizotinib; first compound 0.1265 µM
  relative viability: 0.703
Cediranib + Crizotinib; first compound 0.4 µM
  relative viability: 0.754
Cediranib + Crizotinib; first compound 1.265 µM
  relative viability: 0.785
Cediranib + Crizotinib; first compound 4 µM
  relative viability: 0.853

## EPLC-272H
[1]; first compound 0.001 µM
  relative viability: 1.14
[1]; first compound 0.003162 µM
  relative viability: 1.22
[1]; first compound 0.01 µM
  relative viability: 0.945
[1]; first compound 0.03162 µM
  relative viability: 1.21
[1]; first compound 0.1 µM
  relative viability: 1.17
[2]; first compound 0.001 µM
  relative viability: 1.28
[2]; first compound 0.003162 µM
  relative viability: 1.17
[2]; first compound 0.01 µM
  relative viability: 1.06
[2]; first compound 0.03162 µM
  relative viability: 1.2
[2]; first compound 0.1 µM
  relative viability: 1.13
Decitabine + Lapatinib; first compound 0.04 µM
  relative viability: 0.749
Decitabine + Lapatinib; first compound 0.1265 µM
  relative viability: 0.777
Decitabine + Lapatinib; first compound 1.265 µM
  relative viability: 0.543
Decitabine + Lapatinib; first compound 4 µM
  relative viability: 0.518
Cediranib + Crizotinib; first compound 0.04 µM
  relative viability: 0.735
Cediranib + Crizotinib; first compound 0.4 µM
  relative viability: 0.945
Cediranib + Crizotinib; first compound 1.265 µM
  relative viability: 1.04
Cediranib + Crizotinib; first compound 4 µM
  relative viability: 0.906

## H3255
[1]; first compound 0.001 µM
  relative viability: 0.541
[1]; first compound 0.003162 µM
  relative viability: 0.481
[1]; first compound 0.01 µM
  relative viability: 0.548
[1]; first compound 0.03162 µM
  relative viability: 0.495
[1]; first compound 0.1 µM
  relative viability: 0.553
[2]; first compound 0.001 µM
  relative viability: 0.913
[2]; first compound 0.003162 µM
  relative viability: 0.952
[2]; first compound 0.01 µM
  relative viability: 0.876
[2]; first compound 0.03162 µM
  relative viability: 0.941
[2]; first compound 0.1 µM
  relative viability: 0.805
Decitabine + Lapatinib; first compound 0.04 µM
  relative viability: 0.226
Decitabine + Lapatinib; first compound 0.1265 µM
  relative viability: 0.193
Decitabine + Lapatinib; first compound 0.4 µM
  relative viability: 0.201
Decitabine + Lapatinib; first compound 1.265 µM
  relative viability: 0.164
Decitabine + Lapatinib; first compound 4 µM
  relative viability: 0.205
Cediranib + Crizotinib; first compound 0.04 µM
  relative viability: 0.945
Cediranib + Crizotinib; first compound 0.1265 µM
  relative viability: 0.699
Cediranib + Crizotinib; first compound 0.4 µM
  relative viability: 0.825
Cediranib + Crizotinib; first compound 1.265 µM
  relative viability: 0.925
Cediranib + Crizotinib; first compound 4 µM
  relative viability: 0.861

## HARA
[1]; first compound 0.001 µM
  relative viability: 1.14
[1]; first compound 0.003162 µM
  relative viability: 1.11
[1]; first compound 0.01 µM
  relative viability: 1.14
[1]; first compound 0.03162 µM
  relative viability: 1.12
[1]; first compound 0.1 µM
  relative viability: 1.14
[2]; first compound 0.001 µM
  relative viability: 1.02
[2]; first compound 0.003162 µM
  relative viability: 0.981
[2]; first compound 0.01 µM
  relative viability: 0.79
[2]; first compound 0.03162 µM
  relative viability: 1.02
[2]; first compound 0.1 µM
  relative viability: 0.828
Decitabine + Lapatinib; first compound 0.04 µM
  relative viability: 0.737
Decitabine + Lapatinib; first compound 0.1265 µM
  relative viability: 0.935
Decitabine + Lapatinib; first compound 0.4 µM
  relative viability: 0.443
Decitabine + Lapatinib; first compound 1.265 µM
  relative viability: 0.432
Decitabine + Lapatinib; first compound 4 µM
  relative viability: 0.296
Cediranib + Crizotinib; first compound 0.04 µM
  relative viability: 1.07
Cediranib + Crizotinib; first compound 0.1265 µM
  relative viability: 1.15
Cediranib + Crizotinib; first compound 0.4 µM
  relative viability: 0.991
Cediranib + Crizotinib; first compound 1.265 µM
  relative viability: 1.02
Cediranib + Crizotinib; first compound 4 µM
  relative viability: 1.03
